These results are taken from patent US20250092017A1, “2-PIPERIDYL OR 2-PYRAZOLYL SUBSTITUTED PYRIMIDINE COMPOUND SERVING AS EGFR INHIBITOR” (SUZHOU PUHE BIOPHARMA CO., LTD., priority 2022, published 2025).

The target in series [1] is Ba/F3-FL-EGFR-del19/T790M (Homo sapiens, UniProt P00533, DEL746-750/T790M, cells depend on it). Nature of the series: CellTiter-Glo proliferation, Ba/F3-FL-EGFR-del19/T790M. To be noted: read-out: Ba/F3-FL-EGFR-del19/T790M IC50/nM, 72 hours. In general terms: Cellular ATP, detected with luciferase, serves as a proxy for viable cell number.
Series [2] concerns the target Ba/F3-FL-EGFR-L858R-T790M-C797S (Homo sapiens, UniProt P00533, T790M/C797S/L858R, cells depend on it). Nature of the series: CellTiter-Glo proliferation, Ba/F3-FL-EGFR-L858R-T790M-C797S. Type of series: cell-based. The note with it: 72 hours, read-out: Ba/F3-FL-EGFR-L858R-T790M-C797S IC50/nM. In outline: (§1)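 Ba/F3 lines dependent on the indicated EGFR variants were treated with compounds at a final DMSO concentration of 0.1% at 37 °C, 5% CO2. Viability was read by CellTiter-Glo luminescence, and inhibition rate was normalised to DMSO-treated cells (max) and medium-only wells (min). IC50 came from inhibition curves.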

In series [3] the target is T1, Ba/F3-TEL-EGFR-L858R-C797S (Homo sapiens, UniProt P00533, C797S/L858R, cells depend on it).
T1 construct: fused on or other part: N-terminal TEL (ETV6) oligomerising part fused to the EGFR intracellular/kinase part; P41212 (Transcription factor ETV6)
Nature of the series: CellTiter-Glo proliferation, Ba/F3-TEL-EGFR-L858R-C797S. It counts as cell-based. The note with it: 72 hours, read-out: Ba/F3-TEL-EGFR-L858R-C797S IC50/nM. In outline:
as §1

The target in another series is T2, Ba/F3-FL-EGFR (Homo sapiens, UniProt P00533).
T2 construct: FL read as full length
Nature of the series: CellTiter-Glo proliferation, Ba/F3-FL-EGFR. It counts as cell-based. The note with it: 72 hours, read-out: Ba/F3-FL-EGFR IC50/nM. In outline:
as §1

A short description of series [4]: Liver microsome stability test, mouse. It counts as in vitro ADME. The note with it: mouse liver microsomes 0.5 mg/ml, compound 1 μM, NADPH 1 mM, within 60 minutes. As to the method:
(§2) The compounds of the present disclosure were subjected to a liver microsome stability test. The compounds to be tested were co-incubated with liver microsomes of different species with or without the addition of NADPH. The final concentration of the compounds to be tested in the test system was 1 μM. The final concentration of NADPH was 1 mM, and the final concentration of liver microsomes was 0.5 mg/ml.

Series [5] concerns Ba/F3-FL-EGFR-del19-C797S. Nature of the series: CellTiter-Glo proliferation, Ba/F3-FL-EGFR-del19-C797S. Type of series: cell-based. To be noted: 72 h, proliferation, 72 hours, CellTiter-Glo; read-out: Ba/F3-FL-EGFR-del19-C797S IC50/nM. In outline: as §1
For series [6], the system named is BaF3 (del19/T790M1C797S) tumor cells. Kind of series: In vivo efficacy assay in BALB/c nude mice, subcutaneous BaF3 tumor. The note with it: for TGI: based on final tumor volume. The protocol:
In vivo efficacy assay in BALB/c nude mice. Details were as follows:
BaF3 (del19/T790M1C797S) tumor cells were cultured and inoculated into 6-8 weeks old female BALB/c nude mice (weighing about 20 g), with all mice being subcutaneously inoculated. The mice were cultured in an SPF-grade experimental environment, and all mice had free access to commercially certified standard diets. When the average tumor volume of the mice grew to about 150 mm^3, the test compound was orally administered daily. The dosage was as follows: blank group vehicle (DMSO/Solutol/H2O, 5/10/85). […] The tumor volume was measured three times a week with a two-dimensional caliper, and the animals were weighed every day. […] The volume calculation formula is: V=1/2a*b^2, where a represents the long diameter of the tumor, and b represents the short diameter of the tumor.

Another series addresses Ba/F3-FL-EGFR-L858R (Homo sapiens, UniProt P00533, L858R, cells depend on it). Nature of the series: CellTiter-Glo proliferation, Ba/F3-FL-EGFR-L858R. The note with it: 72 hours, read-out: Ba/F3-FL-EGFR-L858R IC50/nM. It counts as cell-based. In outline: as §1
Series [7] has as its target Ba/F3-FL-EGFR-Del19 (E746-A750) (Homo sapiens, UniProt P00533, DEL746-750, cells depend on it). Nature of the series: CellTiter-Glo proliferation, Ba/F3-FL-EGFR-Del19. The note with it: read-out: Ba/F3-FL-EGFR-Del19 (E746-A750), 72 hours.
Series [8] in a line: Liver microsome stability test, human. To be noted: human liver microsomes 0.5 mg/ml, compound 1 μM, NADPH 1 mM, within 60 minutes. It counts as in vitro ADME. The protocol:
as §2

Series [9] has as its target Ba/F3-FL-EGFR-del19-T790M-C797S (Homo sapiens, UniProt P00533, DEL746-750/T790M/C797S, cells depend on it). Nature of the series: CellTiter-Glo proliferation, Ba/F3-FL-EGFR-del19-T790M-C797S. It counts as cell-based. The note with it: 72 hours, read-out: Ba/F3-FL-EGFR-del19-T790M-C797S IC50/nM. The protocol: Promega CellTiter-Glo reagent was used to detect the effects of small molecule inhibitors on the proliferation of three Ba/F3 cell lines (Ba/F3-FL-EGFR-de119, Ba/F3-FL-EGFR-de119-T790M, Ba/F3-FL-EGFR-de119-T790M-C797S).
The cell lines were cultured in an incubator at 37° C. and 5% CO2. Cells were passaged regularly and cells in the logarithmic phase were used for plating. 95 μL of cell suspension was added to each well of the cell plate, and culture medium without cells (containing 0.1% DMSO) was added to the Min control wells. Substance addition for compound detection cell plate: 5 μL of 20× compound working solution was added to the cell culture plate. 5 μL of DMSO-cell culture medium mixture was added to the Max control, with the final DMSO concentration of 0.1%. 5 μL of DMSO-cell culture medium mixture was added to the Max control. The final DMSO concentration was 0.1%.
Cell viability was detected by CellTiter-Glo luminescence assay. Data analysis:
The cell proliferation inhibition rate (Inhibition Rate) data was processed using the following formula: […]
wherein: RLUDrug represents the relative luminescence unit of the cells with the addition of drug, RLUMin represents the luminescence unit of the culture medium, and RLUMax represents the relative luminescence unit of the cells with the addition of DMSO.
The inhibition rates corresponding to different concentrations of compounds were calculated in EXCEL, and then the inhibition rate curve was plotted using GraphPad Prism software and related parameters including the maximum and minimum inhibition rates of cells and IC50 values were calculated.

[10] abbreviates: 100 mg/kg BID oral (50 mg/kg for the first 4 days, 100 mg/kg from the 5th day), after 13 days.

T2 sequence (P00533 whole entry, change not shown): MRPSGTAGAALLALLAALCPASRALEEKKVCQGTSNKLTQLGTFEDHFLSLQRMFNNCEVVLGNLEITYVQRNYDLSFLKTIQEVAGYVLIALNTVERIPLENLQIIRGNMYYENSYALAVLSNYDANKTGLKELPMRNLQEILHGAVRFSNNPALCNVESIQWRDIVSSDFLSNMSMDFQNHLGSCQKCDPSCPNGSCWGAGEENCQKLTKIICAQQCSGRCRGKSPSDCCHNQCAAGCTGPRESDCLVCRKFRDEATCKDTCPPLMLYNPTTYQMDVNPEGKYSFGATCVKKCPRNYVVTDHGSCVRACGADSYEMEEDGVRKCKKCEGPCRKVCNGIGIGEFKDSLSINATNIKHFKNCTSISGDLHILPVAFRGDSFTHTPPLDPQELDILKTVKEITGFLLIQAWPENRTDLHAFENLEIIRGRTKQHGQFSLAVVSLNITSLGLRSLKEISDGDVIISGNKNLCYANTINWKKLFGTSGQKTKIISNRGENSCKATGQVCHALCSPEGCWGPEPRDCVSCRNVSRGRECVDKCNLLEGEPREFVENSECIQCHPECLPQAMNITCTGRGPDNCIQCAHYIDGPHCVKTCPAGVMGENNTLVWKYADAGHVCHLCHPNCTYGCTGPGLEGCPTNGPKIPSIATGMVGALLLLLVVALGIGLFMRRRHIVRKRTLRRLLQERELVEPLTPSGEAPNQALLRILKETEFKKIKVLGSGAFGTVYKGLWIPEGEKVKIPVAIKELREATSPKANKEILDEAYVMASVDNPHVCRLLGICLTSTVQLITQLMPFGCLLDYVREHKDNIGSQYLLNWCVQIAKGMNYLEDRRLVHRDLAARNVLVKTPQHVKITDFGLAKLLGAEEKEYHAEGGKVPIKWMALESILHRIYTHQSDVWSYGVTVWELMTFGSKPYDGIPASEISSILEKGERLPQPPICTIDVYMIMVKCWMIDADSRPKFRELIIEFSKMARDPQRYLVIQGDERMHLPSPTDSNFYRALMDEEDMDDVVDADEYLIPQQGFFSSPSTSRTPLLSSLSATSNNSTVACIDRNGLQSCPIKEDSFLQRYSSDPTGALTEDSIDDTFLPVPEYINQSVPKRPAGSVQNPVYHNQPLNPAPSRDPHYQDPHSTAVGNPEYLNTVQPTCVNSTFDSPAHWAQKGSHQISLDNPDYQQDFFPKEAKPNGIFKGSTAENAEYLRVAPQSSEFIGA
T1 sequence (P00533 whole entry C797S/L858R, the tested form may be a part): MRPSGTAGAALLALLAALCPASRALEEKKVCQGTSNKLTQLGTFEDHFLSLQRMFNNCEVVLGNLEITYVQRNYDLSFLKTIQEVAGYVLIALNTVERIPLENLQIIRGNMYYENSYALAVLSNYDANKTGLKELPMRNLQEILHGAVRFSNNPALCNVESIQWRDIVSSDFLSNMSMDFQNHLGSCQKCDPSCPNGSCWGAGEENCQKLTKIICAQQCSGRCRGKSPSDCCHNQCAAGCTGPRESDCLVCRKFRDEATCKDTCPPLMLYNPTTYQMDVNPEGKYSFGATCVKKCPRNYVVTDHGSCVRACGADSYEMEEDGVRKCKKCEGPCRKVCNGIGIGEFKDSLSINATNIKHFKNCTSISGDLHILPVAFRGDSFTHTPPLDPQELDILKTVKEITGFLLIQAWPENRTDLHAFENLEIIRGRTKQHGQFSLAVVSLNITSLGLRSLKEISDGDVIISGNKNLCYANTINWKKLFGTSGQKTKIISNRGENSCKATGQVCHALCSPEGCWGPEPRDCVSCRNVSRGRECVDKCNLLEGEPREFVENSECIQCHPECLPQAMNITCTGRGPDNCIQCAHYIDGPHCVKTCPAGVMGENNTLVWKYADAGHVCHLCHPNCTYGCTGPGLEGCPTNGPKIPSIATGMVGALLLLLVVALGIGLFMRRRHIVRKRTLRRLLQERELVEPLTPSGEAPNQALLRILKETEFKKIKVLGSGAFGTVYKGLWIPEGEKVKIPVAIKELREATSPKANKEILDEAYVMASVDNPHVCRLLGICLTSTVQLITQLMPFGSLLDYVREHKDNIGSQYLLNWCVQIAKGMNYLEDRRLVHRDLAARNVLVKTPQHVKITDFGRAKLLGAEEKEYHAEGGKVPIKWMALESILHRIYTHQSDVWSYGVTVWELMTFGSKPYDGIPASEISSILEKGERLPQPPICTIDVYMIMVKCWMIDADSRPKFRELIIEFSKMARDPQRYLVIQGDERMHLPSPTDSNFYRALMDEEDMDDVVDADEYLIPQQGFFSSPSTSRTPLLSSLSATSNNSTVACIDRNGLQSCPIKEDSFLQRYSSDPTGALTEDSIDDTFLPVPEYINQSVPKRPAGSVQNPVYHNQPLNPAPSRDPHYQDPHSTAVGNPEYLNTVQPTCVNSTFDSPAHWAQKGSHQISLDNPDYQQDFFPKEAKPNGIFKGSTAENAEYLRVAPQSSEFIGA
Sequence of Ba/F3-FL-EGFR-del19-T790M-C797S (P00533 with tags, fused parts or gaps DEL746-750/T790M/C797S): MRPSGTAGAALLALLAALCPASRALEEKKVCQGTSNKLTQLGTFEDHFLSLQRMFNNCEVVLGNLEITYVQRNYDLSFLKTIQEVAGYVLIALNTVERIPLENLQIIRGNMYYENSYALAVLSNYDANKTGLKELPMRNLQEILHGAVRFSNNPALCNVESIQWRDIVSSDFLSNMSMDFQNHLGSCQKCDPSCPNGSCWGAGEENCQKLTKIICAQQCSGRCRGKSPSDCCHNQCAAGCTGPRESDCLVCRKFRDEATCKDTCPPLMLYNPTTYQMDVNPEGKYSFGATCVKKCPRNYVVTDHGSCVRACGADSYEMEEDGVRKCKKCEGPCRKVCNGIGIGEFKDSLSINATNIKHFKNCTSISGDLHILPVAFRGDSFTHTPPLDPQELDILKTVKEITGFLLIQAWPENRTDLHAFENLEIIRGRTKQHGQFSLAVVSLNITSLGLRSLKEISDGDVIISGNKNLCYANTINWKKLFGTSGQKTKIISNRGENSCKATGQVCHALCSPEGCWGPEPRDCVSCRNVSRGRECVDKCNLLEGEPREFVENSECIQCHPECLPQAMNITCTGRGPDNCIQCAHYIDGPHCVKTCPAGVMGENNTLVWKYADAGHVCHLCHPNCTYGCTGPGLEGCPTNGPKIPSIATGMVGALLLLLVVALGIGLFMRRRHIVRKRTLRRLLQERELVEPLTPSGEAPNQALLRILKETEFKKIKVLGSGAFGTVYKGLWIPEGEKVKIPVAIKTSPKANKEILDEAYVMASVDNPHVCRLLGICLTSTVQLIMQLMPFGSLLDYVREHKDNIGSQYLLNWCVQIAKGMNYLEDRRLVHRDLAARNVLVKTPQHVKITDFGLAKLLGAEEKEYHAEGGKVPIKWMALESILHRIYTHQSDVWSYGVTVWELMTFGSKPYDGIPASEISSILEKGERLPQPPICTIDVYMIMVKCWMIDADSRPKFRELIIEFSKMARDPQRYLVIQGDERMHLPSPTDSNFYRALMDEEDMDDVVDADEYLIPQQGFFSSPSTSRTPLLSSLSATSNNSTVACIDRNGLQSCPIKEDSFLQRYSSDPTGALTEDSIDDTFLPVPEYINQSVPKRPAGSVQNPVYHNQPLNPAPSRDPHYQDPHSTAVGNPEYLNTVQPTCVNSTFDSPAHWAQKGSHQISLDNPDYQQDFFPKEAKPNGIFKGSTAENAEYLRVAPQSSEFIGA
Sequence of Ba/F3-FL-EGFR-L858R-T790M-C797S (P00533 whole entry T790M/C797S/L858R): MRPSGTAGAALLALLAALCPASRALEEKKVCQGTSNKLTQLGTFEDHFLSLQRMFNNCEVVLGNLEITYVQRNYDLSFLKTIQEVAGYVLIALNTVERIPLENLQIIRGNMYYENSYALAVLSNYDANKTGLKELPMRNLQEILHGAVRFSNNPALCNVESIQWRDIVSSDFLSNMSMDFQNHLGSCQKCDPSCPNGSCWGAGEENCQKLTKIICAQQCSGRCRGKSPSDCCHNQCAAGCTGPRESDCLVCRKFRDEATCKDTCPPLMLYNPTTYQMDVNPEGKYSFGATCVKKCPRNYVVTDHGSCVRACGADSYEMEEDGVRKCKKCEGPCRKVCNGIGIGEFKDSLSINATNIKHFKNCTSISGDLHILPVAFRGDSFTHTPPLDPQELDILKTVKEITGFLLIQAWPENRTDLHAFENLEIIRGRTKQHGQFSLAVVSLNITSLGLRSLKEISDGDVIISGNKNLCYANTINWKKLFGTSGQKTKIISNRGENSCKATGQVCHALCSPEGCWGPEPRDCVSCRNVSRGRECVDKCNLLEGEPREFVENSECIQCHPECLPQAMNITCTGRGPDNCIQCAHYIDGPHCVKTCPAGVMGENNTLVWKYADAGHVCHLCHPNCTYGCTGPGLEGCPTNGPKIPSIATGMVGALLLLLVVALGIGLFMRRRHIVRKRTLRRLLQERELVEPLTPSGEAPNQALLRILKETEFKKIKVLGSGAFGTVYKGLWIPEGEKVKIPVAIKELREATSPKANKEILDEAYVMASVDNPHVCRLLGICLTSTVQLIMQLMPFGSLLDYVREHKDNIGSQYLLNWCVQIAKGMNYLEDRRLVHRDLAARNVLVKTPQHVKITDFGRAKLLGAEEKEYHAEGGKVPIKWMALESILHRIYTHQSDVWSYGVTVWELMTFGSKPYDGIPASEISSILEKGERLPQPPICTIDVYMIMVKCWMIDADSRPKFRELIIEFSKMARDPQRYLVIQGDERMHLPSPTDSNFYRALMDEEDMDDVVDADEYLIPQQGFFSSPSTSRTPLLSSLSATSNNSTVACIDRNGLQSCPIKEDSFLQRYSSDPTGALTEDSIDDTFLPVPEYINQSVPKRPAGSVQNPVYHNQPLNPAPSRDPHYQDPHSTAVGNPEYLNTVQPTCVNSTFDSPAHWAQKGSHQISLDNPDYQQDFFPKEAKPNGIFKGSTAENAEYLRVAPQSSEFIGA

The term CLint scaled denotes the rate of metabolic loss divided by the concentration. A low value points to slow turnover. With `CC(C)c1ccc(N2C[C@H](N(C)S(C)(=O)=O)[C@H]2C)c2cnc(Nc3ccnc(-c4cnn(S(=O)(=O)C5CC5)c4)n3)cc12` [Compound H23], the GI50 came to 0.3 nM in series [1]; 10 nM in series [2]; 4.3 nM in series [3]; 121 nM at Ba/F3-FL-EGFR; 3.7 nM at Ba/F3-FL-EGFR-L858R; 3.1 nM in series [7]. Also, in [9], the GI50 came out at 3.1 nM. The CLint scaled at 1 μM in series [4] was 448 mL/min/kg; in [8], < 8.6 mL/min/kg. For the same molecule, in series [5], the IC50 worked out at 3.1 nM. Besides, in series [6] (setting [10]), the “Tumor volume (mm^3)” value is 28 mm^3. Further, the TGI in series [6] (setting [10]) is given as 103%.
For `CC(C)c1ccc(N2C[C@H](CS(C)(=O)=O)[C@H]2C)c2cnc(Nc3ccnc(-c4cnn(S(C)(=O)=O)c4)n3)cc12` [Compound H30], the GI50 in [1] was 5.1 nM; in series [2], 21 nM; in series [3], 8.9 nM; at Ba/F3-FL-EGFR, 259 nM; at Ba/F3-FL-EGFR-L858R, 10 nM; in [7], 15 nM. The GI50 in [9] was found to be 7.8 nM. Also, the intrinsic metabolic clearance (CLint scaled) at 1 μM turned out to be 145 mL/min/kg in series [4] and 11.7 mL/min/kg in [8]. For the same molecule, the IC50 in series [5] was 9.2 nM.
`CC(C)c1ccc(N2C[C@H](N(C)S(C)(=O)=O)[C@H]2C)c2cnc(Nc3ccnc(N4CC[C@@H](O)[C@@H](F)C4)n3)cc12` [Compound P41a]: the GI50 in series [1] was determined as 3.2 nM; in series [2] it was 4.6 nM; in series [3] it was 7.1 nM; on Ba/F3-FL-EGFR, 693 nM; at Ba/F3-FL-EGFR-L858R, 22 nM; in series [7], 54 nM. In addition, the GI50 in [9] was 5.9 nM. In addition, the IC50 in [5] worked out at 57 nM. Besides, in [6] (100 mg/kg, BID, oral, after 13 consecutive days of administration), the “Tumor volume (mm^3)” value was determined as 693 mm^3. Further, the TGI in [6] (100 mg/kg, BID, oral, after 13 consecutive days) was 85%.
On to `CC(C)c1ccc(N2C[C@H](N(C)S(C)(=O)=O)[C@H]2C)c2cnc(Nc3ccnc(N4CC[C@H](O)[C@H](F)C4)n3)cc12` [Compound P41b], for which the GI50 in series [1] was found to be 2.3 nM; in [2], 3.7 nM; in [3] it was 5.6 nM; at Ba/F3-FL-EGFR it was 464 nM; at Ba/F3-FL-EGFR-L858R, 15 nM; in [7], 36 nM. The GI50 in series [9] amounted to 3.7 nM. Besides, the IC50 in [5] was 35 nM.
